Measured values published in patent publication US20050261171A1, “Combination cancer therapy” (Pharmacyclics, Inc., priority 2001, published 2005).
Like-named read-outs stand apart in the source and are kept apart here.

Tests used:
[1] = system: murine Lewis lung carcinoma cell line (LLC1); type: in vivo, Female C57BL mice; details: control group 12.11 days
[2] = system: murine Lewis lung carcinoma cell line (LLC1); assay: Taxol and MGd, tumor regrowth delay in subcutaneous Lewis lung carcinoma model; type: in vivo, Female C57BL mice; details: control group 11.40 days
murine Lewis lung cancer = assay: Carboplatin and MGd, murine Lewis lung cancer in C57 mice; type: in vivo; details: Group #2: 20 μmol/kg MGd on day 7 post tumor inoculation; control group 12.14 days
[3] = system: murine Lewis lung carcinoma cell line (LLC1); assay: BCNU and MGd, tumor regrowth delay in subcutaneous Lewis lung carcinoma model; type: in vivo, Female C57BL mice; details: control group 11.45 days

Motexafin Gadolinium [MGd]
median survival ([1]; Group #2: 20 μmol/kg MGd iv thrice at three day intervals after tumor established): 13.07 days | median survival ([2]; Group #2: 20 μmol/kg MGd iv on days 7, 9, 11 and 13): 12.90 days | median survival (murine Lewis lung cancer): 12.42 days | median survival ([3]; Group #2: 20 μmol/kg MGd iv on days 10, 12 and 14): 10.04 days

CC(=O)O[C@H]1C(=O)[C@@]2(C)[C@H]([C@H](OC(=O)c3ccccc3)[C@]3(O)C[C@H](OC(=O)[C@H](O)[C@@H](NC(=O)c4ccccc4)c4ccccc4)C(C)=C1C3(C)C)[C@]1(OC(C)=O)CO[C@@H]1C[C@@H]2O [Taxol, paclitaxel, reference compound]
median survival ([2]; Group #3: 24 μmol/kg of Taxol iv on days 7, 9, 11 and 13): 11.55 days

bleomycin [reference compound]
median survival ([1]; Group #3: 10 units/kg bleomycin iv thrice at three day intervals after tumor established): 14.73 days

O=NN(CCCl)C(=O)NCCCl [BCNU, carmustine, reference compound]
median survival ([3]; Group #3: 15 mg/kg BCNU ip on days 10, 12 and 14): 10.46 days
